Experimental data from patent US11071701B2, “Medicament and cosmetic composition comprising resorcinol derivatives” (Symrise AG, priority 2016, dated 2021).

Columns and labels:
[1] = test system: Human epidermal melanoma cells A375; assay: Visible light induced hyperpigmentation in vitro (melanin quantification); assay type: cell-based; conditions: for Inhibition vs. visible light induced / Melanin: visible light 480 J/cm2; for Melanin: treated 48 h prior to and past irradiation; for inhibition of visible light induced hyperpigmentation (in words): summary of Table 1
Protocol: Human epidermal melanoma cells A375 were cultured in 6-well plates. The cells were exposed to visible light (480 J/cm2) with Hydrosun 750 equipped with KG1 filter. 48 h prior to and past to the irradiation the cells were treated with test compounds in non-cytotoxic concentrations. Melanocytes were lysed in a solution of NaOH. Melanin was quantified by measurement of absorbance at 405 nm and calculation based on a melanin standard curve.

[2] = test system: ex vivo human skin explants; assay: Melanin formation after visible light irradiation on ex vivo human skin; conditions: visible light 480 J/cm2; for % of melanin: Fontana-Masson stain, image analysis
Protocol: The below formulations were applied on ex vivo human skin explants from abdominal surgery of a donor with phototype IV (Fitzpatrick scale). 48 h after the formulations were removed with a cotton pad. Skin explants were exposed to visible light (480 J/cm2) with Hydrosun 750 equipped with KG1 filter. Formulations were reapplied afterwards. 48 h later skin sections were prepared and melanin was stained by Fontana-Masson stain. Quantification of melanin was done by image analysis.

## CCCCc1ccc(O)cc1O [4-Butylresorcinol, 4-butyl resorcinol]
[1]; concentration 0.0000316 %
  Inhibition vs. visible light induced: 58%
  Melanin: 2.3136 ± 0.6518 µg
[1]; concentration 0.0001000 %
  Inhibition vs. visible light induced: 100%
  Melanin: 1.8593 ± 0.5365 µg
[1]; concentration 0.0003160 %
  Inhibition vs. visible light induced: 183%
  Melanin: 0.9849 ± 0.0738 µg
[1]
  inhibition of visible light induced hyperpigmentation (in words): significantly inhibit

## CCCCCCc1ccc(O)cc1O [4-Hexylresorcinol, 4-hexyl resorcinol]
[1]; concentration 0.000005 %
  Inhibition vs. visible light induced: 91%
  Melanin: 1.9616 ± 0.2899 µg
[1]; concentration 0.000015 %
  Inhibition vs. visible light induced: 102%
  Melanin: 1.8407 ± 0.1988 µg
[1]; concentration 0.000050 %
  Inhibition vs. visible light induced: 166%
  Melanin: 1.1668 ± 0.1312 µg
[1]
  inhibition of visible light induced hyperpigmentation (in words): significantly inhibit

## CC(c1ccccc1)c1ccc(O)cc1O (stereo not shown) [SymWhite ® 377, phenylethyl resorcinol]
[2]; 0.2% in formulation applied to skin explants (phototype IV)
  % of melanin: 42.48 ± 2.6%
[2]; 0.2% in formulation applied to skin explants
  Inhibition vs Placebo: 67.5%
[2]; 0.5% in formulation applied to skin explants (phototype IV)
  % of melanin: 25.91 ± 1.2%
[2]; 0.5% in formulation applied to skin explants
  Inhibition vs Placebo: 125.7%
[1]; concentration 0.000068 %
  Inhibition vs. visible light induced: 79%
  Melanin: 0.5688 ± 0.0793 µg
[1]; concentration 0.000210 %
  Inhibition vs. visible light induced: 86%
  Melanin: 0.5280 ± 0.0494 µg
[1]; concentration 0.000680 %
  Inhibition vs. visible light induced: 100%
  Melanin: 0.4598 ± 0.1024 µg
[1]
  inhibition of visible light induced hyperpigmentation (in words): significantly inhibit
